Here are results for two compounds from patent US20240262803A1, “COMPOUNDS, COMPOSITIONS AND METHODS OF TREATING DISORDERS” (Chungdu Anticancer Bioscience Ltd, priority 2021, published 2024).

Entries after “also recorded” stand apart in the source; their conditions may differ. Where two headings read alike, the source gives them in different places.

Assay [1] deals with RPEMYC^H2B-GFP cells. The assay is described as follows: Mechanism-informed phenotypic screening assay (mitotic arrest, polyploidy; GE IN-Cell Analyzer 2000). In kind it is cell-based. The settings on record: 20 nM to 20 μM, 24, 48 or 72 hours, read-out: Min. Effective conc. for polyploidy (≥5%). The procedure, abridged: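 Cells expressing Histone 2B-EGFP (RPEMYC^H2B-GFP) were plated 18-24 h before exposure to compounds at 20 nM to 20 μM. At 24, 48 or 72 h, imaging scored mitotic arrest or change in DNA content. Value is the lowest concentration giving polyploid accumulation at 48 h.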

For assay [2], the system named is lung cancer cell line NCI-H23. The assay is described as follows: MTT assay of cellular proliferation, NCI-H23. To be noted: Homo sapiens, read-out: EC50: Concentration that inhibits 50% of proliferation. The format is cell-based. In short, it runs like this:
(§1)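 In this viability read-out, mitochondrial reductase converts MTT to formazan, measured at 570 nm after 3˜4 h. Cells are treated at 20˜30% confluence with 1 nM to 10 μM compound, and the EC50 is the concentration halving proliferation.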
(Formazan colour is commonly taken as a measure of viable cells.)

The test system of assay [3] is lung cancer cell line A549. The assay can be described thus: MTT assay of cellular proliferation, A549. The format is cell-based. The settings on record: Homo sapiens, read-out: EC50: Concentration that inhibits 50% of proliferation. In short, it runs like this: as §1
For assay [4], the system named is colon cancer cell line HCT116. The assay is described as follows: MTT assay of cellular proliferation, HCT116. In kind it is cell-based. To be noted: Homo sapiens, HCT-116, read-out: EC50: Concentration that inhibits 50% of proliferation. In short, it runs like this: as §1
Assay [5] relates to colon cancer cell line SW460. The assay can be described thus: MTT assay of cellular proliferation, SW460. The settings on record: Homo sapiens, SW480; read-out: EC50: Concentration that inhibits 50% of proliferation. In kind it is cell-based. The procedure, abridged: as §1
Assay [6] deals with breast cancer cell line MDA-MB-231. The assay can be described thus: MTT assay of cellular proliferation, MDA-MB-231. In kind it is cell-based. To be noted: Homo sapiens, read-out: EC50: Concentration that inhibits 50% of proliferation. The procedure, abridged:
as §1

The test system of assay [7] is gastric cancer cell line NCI-N87. The assay can be described thus: MTT assay of cellular proliferation, NCI-N87. In kind it is cell-based. The settings on record: Homo sapiens, read-out: EC50: Concentration that inhibits 50% of proliferation. In short, it runs like this:
as §1

Assay [8] concerns cervical cancer cell line Hela. The assay is described as follows: MTT assay of cellular proliferation, Hela. In kind it is cell-based. The settings on record: Homo sapiens, read-out: EC50: Concentration that inhibits 50% of proliferation. In short, it runs like this: as §1
Assay [9] concerns liver cancer cell line T2 HCC. The assay can be described thus: MTT assay of cellular proliferation, T2 HCC. To be noted: Mus musculus, read-out: EC50: Concentration that inhibits 50% of proliferation. The format is cell-based. The procedure, abridged: as §1
Assay [10] has as its system human lung adenocarcinoma cell line NCI-H23. The assay is described as follows: Xenograft assay, NCI-H23. The settings on record: NCI-H23 subcutaneous xenograft, Nu/Nu mice, oral gavage twice a day for 9 days, FIG. 3. In kind it is in vivo. As to the method:
(§2) Xenografts were initiated in immunocompromised (Nu/Nu) mice with the human lung adenocarcinoma cell line NCI-H23 (FIG. 3) and the human colon cancer cell line HCT116 (FIG. 4). Five million cells were injected subcutaneously into each mouse and treatment was initiated when the average tumor volumes reached 150 mm3 (n=5/groups). Tumor-bearing mice were randomized into different groups to receive either vehicle or indicated compounds. The compounds were administered through oral gavage twice a day for 9 days. Day 0 on the x-axis indicates the day that treatment was initiated. For these experiments, all compounds were first dissolved in DMSO and then diluted 1:10 into a mixture containing 50% PEG300 and 49% PBS, 1% Tween 80, pH2.2. 100 ul of drug solution was administered with each dose. Tumor volumes were determined once every three days and are calculated from digital caliper raw data by using the formula: Volume (mm3)=(L×W^2)/2. The value W (Width) is the smaller of two perpendicular tumor axes and the value L (Length) is the larger of two perpendicular axes. Mean tumor volume growth curves and means are calculated for each treatment group.

Assay [11] has as its system human colon cancer cell line HCT116. The assay can be described thus: Xenograft assay, HCT116. The settings on record: HCT116 subcutaneous xenograft, Nu/Nu mice, oral gavage twice a day for 9 days, FIG. 4. In kind it is in vivo. As to the method:
as §2

Assay [12] concerns lung cancer cell line NCI-H23. The assay is described as follows: Minimal effective concentration that elicits polyploidy, NCI-H23. In kind it is cell-based. To be noted: Homo sapiens, read-out: MECP: Minimal effective concentration that elicits polyploidy.
The test system of assay [13] is lung cancer cell line A549. The assay is described as follows: Minimal effective concentration that elicits polyploidy, A549. The format is cell-based. To be noted: Homo sapiens, read-out: MECP: Minimal effective concentration that elicits polyploidy.
Assay [14] has as its system colon cancer cell line HCT116. The assay is described as follows: Minimal effective concentration that elicits polyploidy, HCT116. The format is cell-based. To be noted: Homo sapiens, HCT-116, read-out: MECP: Minimal effective concentration that elicits polyploidy.
The next assay relates to SW480. The assay can be described thus: Minimal effective concentration that elicits polyploidy, SW480. The format is cell-based. The settings on record: Homo sapiens, read-out: MECP: Minimal effective concentration that elicits polyploidy.
The subject of assay [15] is breast cancer cell line MDA-MB-231. The assay can be described thus: Minimal effective concentration that elicits polyploidy, MDA-MB-231. The format is cell-based. The settings on record: Homo sapiens, read-out: MECP: Minimal effective concentration that elicits polyploidy.
In assay [16] the test system is cervical cancer cell line Hela. The assay can be described thus: Minimal effective concentration that elicits polyploidy, Hela. The format is cell-based. To be noted: Homo sapiens, read-out: MECP: Minimal effective concentration that elicits polyploidy.
Assay [17] concerns gastric cancer cell line NCI-N87. The assay can be described thus: Minimal effective concentration that elicits polyploidy, NCI-N87. The format is cell-based. The settings on record: Homo sapiens, read-out: MECP: Minimal effective concentration that elicits polyploidy.
Assay [18] deals with liver cancer cell line T2 HCC. The assay can be described thus: Minimal effective concentration that elicits polyploidy, T2 HCC. The format is cell-based. To be noted: Mus musculus, read-out: MECP: Minimal effective concentration that elicits polyploidy.
The test system of assay [19] is RPEMYC^H2B-GFP cells. The assay can be described thus: Mechanism-informed phenotypic screening assay (mitotic arrest, polyploidy; GE IN-Cell Analyzer 2000). To be noted: 20 nM to 20 μM, 24, 48 or 72 hours, read-out: Mitotic Arrest (≥5%). The format is cell-based.

Turning to `COc1cc(OC)cc(Oc2ncccc2-c2ccnc(OC)c2)c1` [Compound 32, 2-(3,5-dimethoxyphenoxy)-2′-methoxy-3,4′-bipyridine], the minimal effective concentration in the assay on RPEMYC^H2B-GFP cells [1] is 1 µM; in [12] it was 0.001 to 1 µM; in assay [13], 0.001 to 1 µM; in [14], 0.001 to 1 µM; in the assay on SW480, 0.001 to 1 µM; in assay [15] it was 0.001 to 1 µM. In addition, the minimal effective concentration in [16] was 0.001 to 1 µM; in [17], 0.001 to 1 µM; in assay [18], 0.001 to 1 µM; in the assay on RPEMYC^H2B-GFP cells [19], 1 µM. In addition, the EC50 in assay [2], in assay [3], in assay [4], in [5], in assay [6] and in assay [7] was 1 to 1000 nM in each case. Besides, the EC50 in assay [8] and in [9] was 1 to 1000 nM each time. Besides, the “tumor growth (tumor volume)” value in assay [10] and in assay [11] was “suppressing the tumor growth” each time.
Take `CNC(=O)c1cc(Oc2ncccc2-c2ccnc(OC)c2)cc(OC(F)(F)F)c1` [Compound 29, 3-((2′-methoxy-[3,4′-bipyridin]-2-yl)oxy)-N-methyl-5-(trifluoromethoxy)benzamide]: the minimal effective concentration with RPEMYC^H2B-GFP cells [1] was 1 µM; in assay [12], 0.001 to 1 µM; in assay [13], 0.001 to 1 µM; in assay [14], 0.001 to 1 µM; in the assay with SW480, 0.001 to 1 µM; in [15] it was 0.001 to 1 µM. In addition, the minimal effective concentration in assay [16] is 0.001 to 1 µM; in assay [17], 0.001 to 1 µM; in assay [18] it was 0.001 to 1 µM; in the assay on RPEMYC^H2B-GFP cells [19], 1 µM. Also, the EC50 in [2], in [3], in [4], in assay [5], in [6] and in assay [7] was 1 to 1000 nM in each case. Moreover, the EC50 in assay [8] and in [9] was 1 to 1000 nM in each case. Besides, the “tumor growth (tumor volume)” value in [10] and in assay [11] was “suppress the growth; also recorded: suppressing the tumor growth” in each case.
